For the test, the system named is MDA-MB-231 human breast cancer cells. The test is described as follows: Cell proliferation assay (CellTiter-Glo, 72 hours treatment). The class given is cell-based. Conditions: Homo sapiens; MDA-MB-231 cells, 72 hours at 37° C., CellTiter-Glo; read-out: MDA-MB-231 cell proliferation assay (IC50). The essentials:
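MDA-MB-231 cells seeded at 2,500 cells/well, treated next day with compound or DMSO vehicle for 72 h at 37 °C. Proliferation read by CellTiter-Glo; IC50 from sigmoidal non-linear regression, binned as +++ (<100 nM), ++ (100–1000 nM), + (>1000 nM).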

Molecules are shown by their SMILES.

For `CN(C)C[C@H]1[C@@H](O)[C@@]2(O)c3ncc(Cl)cc3O[C@@]2(c2ccc(C(F)(F)F)cc2)[C@@H]1c1ccccc1` (single isomer, unassigned) [109F], the IC50 lay within 100 to 1000 nM. Regarding `N#Cc1ccc([C@@]23Oc4cc(Cl)cnc4[C@]2(O)[C@H](O)C[C@H]3c2ccccc2)cc1` (racemic) [128F, Rac-4-((5aR,6S,8R,8aS)-3-chloro-8,8a-dihydroxy-6-phenyl-6,7,8,8a-tetrahydro-5aH-cyclopenta[4,5]furo[3,2-b]pyridin-5a-yl)benzonitrile], the IC50 lay in the range of 100 to 1000 nM. On to `CN(C)C(=O)[C@@H]1[C@@H](c2ccccc2)[C@]2(c3ccc(C#N)cc3)Oc3cc(Cl)cnc3[C@]2(O)[C@H]1C#N` (racemic) [51F, Rac-(5aR,6S,7R,8R,8aR)-3-chloro-8-cyano-5a-(4-cyanophenyl)-8a-hydroxy-N,N-dimethyl-6-phenyl-5a,7,8,8a-tetrahydro-6H-cyclopenta[4,5]furo[3,2-b]pyridine-7-carboxamide], for which the IC50 was 100 to 1000 nM. On to `COc1nc(C#N)cc2c1[C@]1(O)[C@@H](CN3CCOCC3)[C@H](CO)[C@@H](c3ccccc3)[C@]1(c1ccc(C#N)cc1)O2` (racemic) [200F, Rac-(5aR,6S,7R,8R,8aR)-5a-(4-cyanophenyl)-8a-hydroxy-7-(hydroxymethyl)-1-methoxy-8-(morpholinomethyl)-6-phenyl-5a,7,8,8a-tetrahydro-6H-cyclopenta[4,5]furo[3,2-c]pyridine-3-carbonitrile], for which the IC50 was < 100 nM. On to `COc1cncc2c1[C@]1(O)[C@H](O)[C@H](CN3CCC(F)(F)C3)[C@@H](c3ccccc3)[C@]1(c1ccc(C#N)cc1)O2` (single isomer, unassigned) [280F], for which the IC50 fell in the range of 100 to 1000 nM. With `CN(C)C(=O)[C@H]1[C@@H](O)[C@@]2(O)c3ccncc3O[C@@]2(c2ccc(C#N)cc2)[C@@H]1c1ccccc1` (single isomer, unassigned) [95F], the IC50 lay in the range of 100 to 1000 nM.

Regarding `CC1(C)COCCN1C[C@H]1[C@@H](O)[C@@]2(O)c3ncc(Cl)cc3O[C@@]2(c2ccc(Br)cc2)[C@@H]1c1ccccc1` (racemic) [214F, Rac-(5aR,6S,7S,8R,8aS)-5a-(4-bromophenyl)-3-chloro-7-((3,3-dimethylmorpholino)methyl)-6-phenyl-5a,6,7,8-tetrahydro-8aH-cyclopenta[4,5]furo[3,2-b]pyridine-8,8a-diol], the IC50 was in the range of 100 to 1000 nM. For `CN(C)C(=O)[C@H]1[C@@H](O)[C@@]2(O)c3n[nH]cc3O[C@@]2(c2ccc(C#N)cc2)[C@@H]1c1ccccc1` (racemic) [100F, rac-(4aR,5S,6R,7R,7aS)-4a-(4-cyanophenyl)-7,7a-dihydroxy-N,N-dimethyl-5-phenyl-2,4a,5,6,7,7a-hexahydrocyclopenta[4,5]furo[3,2-c]pyrazole-6-carboxamide], the IC50 is > 1000 nM. As for `COc1cncc2c1[C@]1(O)[C@H](O)[C@H](CN(C)CC(F)F)[C@@H](c3ccccc3)[C@]1(c1ccc(C#N)cc1)O2` (single isomer, unassigned) [112F], the figure is 100 to 1000 nM; as for `COc1cncc2c1[C@]1(O)[C@H](O)[C@H](C(=O)N(C)CCF)[C@@H](c3ccccc3)[C@]1(c1ccc(Br)cc1)O2` (racemic) [247F, Rac-(4bS,5R,6R,7S,7aR)-7a-(4-bromophenyl)-N-(2-fluoroethyl)-4b,5-dihydroxy-4-methoxy-N-methyl-7-phenyl-4b,6,7,7a-tetrahydro-5H-cyclopenta[4,5]furo[2,3-c]pyridine-6-carboxamide], < 100 nM. As for `COc1cncc2c1[C@]1(O)[C@H](O)[C@H](S(=O)(=O)c3ccccn3)[C@@H](c3ccccc3)[C@]1(c1ccc(C#N)cc1)O2` (racemic) [119F, Rac-4-((4bS,5S,6R,7S,7aR)-4b,5-dihydroxy-4-methoxy-7-phenyl-6-(pyridin-2-ylsulfonyl)-4b,5,6,7-tetrahydro-7aH-cyclopenta[4,5]furo[2,3-c]pyridin-7a-yl)benzonitrile], the IC50 is 100 to 1000 nM. As to `COc1nc(C#N)cc2c1[C@]1(O)[C@@H](CN3CCC(F)(F)CC3)[C@H](CO)[C@@H](c3ccccc3)[C@]1(c1ccc(C#N)cc1)O2` (racemic) [213F, Rac-(5aR,6S,7R,8R,8aR)-5a-(4-cyanophenyl)-8-((4,4-difluoropiperidin-1-yl)methyl)-8a-hydroxy-7-(hydroxymethyl)-1-methoxy-6-phenyl-5a,7,8,8a-tetrahydro-6H-cyclopenta[4,5]furo[3,2-c]pyridine-3-carbonitrile], the IC50 is < 100 nM. `COc1nc(C#N)cc2c1[C@]1(O)[C@H](O)[C@H](CN3CCC(F)(F)CC3)[C@@H](c3ccccc3)[C@]1(c1ccc(Br)cc1)O2` (racemic) [157Fa, Rac-(5aR,6S,7S,8R,8aS)-5a-(4-bromophenyl)-7-((4,4-difluoropiperidin-1-yl)methyl)-8,8a-dihydroxy-1-methoxy-6-phenyl-5a,7,8,8a-tetrahydro-6H-cyclopenta[4,5]furo[3,2-c]pyridine-3-carbonitrile]: the IC50 was 100 to 1000 nM. To `COc1cncc2c1[C@]1(O)[C@H](O)[C@H](C(=O)NCC(F)(F)F)[C@@H](c3ccccc3)[C@]1(c1ccc(Br)cc1)O2` (racemic) [90F, Rac-(4bS,5R,6R,7S,7aR)-7a-(4-bromophenyl)-4b,5-dihydroxy-4-methoxy-7-phenyl-N-(2,2,2-trifluoroethyl)-4b,6,7,7a-tetrahydro-5H-cyclopenta[4,5]furo[2,3-c]pyridine-6-carboxamide] belongs < 100 nM; to `COC(=O)[C@@]12C[C@@H]1[C@@]1(O)c3ncc(Cl)cc3O[C@@]1(c1ccc(C#N)cc1)[C@@H]2c1ccccc1` (racemic) [25F, Rac-methyl (5aR,6R,6aS,7aS,7bR)-3-chloro-5a-(4-cyanophenyl)-7b-hydroxy-6-phenyl-5a,7,7a,7b-tetrahydrocyclopropa[4′,5′]cyclopenta[1′,2′:4,5]furo[3,2-b]pyridine-6a(6H)-carboxylate], > 1000 nM; to `COc1cncc2c1[C@]1(O)[C@@H](CO)C[C@@H](c3ccccc3)[C@]1(c1ccc(CN)cc1)O2` (racemic) [234F, rac-(4bR,5R,7S,7aR)-7a-(4-(aminomethyl)phenyl)-5-(hydroxymethyl)-4-methoxy-7-phenyl-5,6,7,7a-tetrahydro-4bH-cyclopenta[4,5]furo[2,3-c]pyridin-4b-ol], > 1000 nM.

On to `C#CC1(O)C(C(=O)N(C)C)[C@@H](c2ccccc2)[C@]2(c3ccc(Br)cc3)Oc3cc(Cl)cnc3[C@]12O` (mixture of isomers) [190F, rac-(5aR,6S,8aS)-5a-(4-bromophenyl)-3-chloro-8-ethynyl-8,8a-dihydroxy-N,N-dimethyl-6-phenyl-5a,7,8,8a-tetrahydro-6H-cyclopenta[4,5]furo[3,2-b]pyridine-7-carboxamide], for which the IC50 was 100 to 1000 nM. With `O=S(=O)(c1ccccn1)[C@H]1[C@@H](O)[C@@]2(O)c3ncc(Cl)cc3O[C@@]2(c2ccc(Br)cc2)[C@@H]1c1ccccc1` (racemic) [163F, rac-(5aR,6S,7R,8S,8aS)-5a-(4-bromophenyl)-3-chloro-6-phenyl-7-(pyridin-2-ylsulfonyl)-5a,6,7,8-tetrahydro-8aH-cyclopenta[4,5]furo[3,2-b]pyridine-8,8a-diol], the IC50 lay in the range of 100 to 1000 nM.

Take `COc1nc(Cl)cc2c1[C@]1(O)[C@H](O)[C@H](CN3CC(F)C3)[C@@H](c3ccccc3)[C@]1(c1ccc(C#N)cc1)O2` (racemic) [211Fb, Rac-4-((5aR,6S,7S,8R,8aS)-3-chloro-7-((3-fluoroazetidin-1-yl)methyl)-8,8a-dihydroxy-1-methoxy-6-phenyl-6,7,8,8a-tetrahydro-5aH-cyclopenta[4,5]furo[3,2-c]pyridin-5a-yl)benzonitrile]: the IC50 was < 100 nM. Consider `COc1cncc2c1[C@]1(O)[C@H](O)[C@H](C(=O)N(C)C3COC3)[C@@H](c3ccccc3)[C@]1(c1ccc(Br)cc1)O2` (racemic) [237F, Rac-(4bS,5R,6R,7S,7aR)-7a-(4-bromophenyl)-4b,5-dihydroxy-4-methoxy-N-methyl-N-(oxetan-3-yl)-7-phenyl-4b,6,7,7a-tetrahydro-5H-cyclopenta[4,5]furo[2,3-c]pyridine-6-carboxamide], for which the IC50 is < 100 nM.

Regarding `COc1nc(C#N)cc2c1[C@]1(O)[C@H](O)[C@H](CN3CCC(F)CC3)[C@@H](c3ccccc3)[C@]1(c1ccc(C#N)cc1)O2` (racemic) [156Fc, Rac-(5aR,6S,7S,8R,8aS)-5a-(4-cyanophenyl)-7-((4-fluoropiperidin-1-yl)methyl)-8,8a-dihydroxy-1-methoxy-6-phenyl-5a,7,8,8a-tetrahydro-6H-cyclopenta[4,5]furo[3,2-c]pyridine-3-carbonitrile], the IC50 is < 100 nM. To `COc1nc(Cl)cc2c1[C@]1(O)[C@H](O)[C@H](CN3CCC(F)CC3)[C@@H](c3ccccc3)[C@]1(c1ccc(C#N)cc1)O2` (racemic) [156Fb, Rac-4-((5aR,6S,7S,8R,8aS)-3-chloro-7-((4-fluoropiperidin-1-yl)methyl)-8,8a-dihydroxy-1-methoxy-6-phenyl-6,7,8,8a-tetrahydro-5aH-cyclopenta[4,5]furo[3,2-c]pyridin-5a-yl)benzonitrile] belongs < 100 nM.

As for `COc1nc(C#N)cc2c1[C@]1(O)[C@H](O)[C@H](CN(C)C)[C@@H](c3ccccc3)[C@]1(c1ccc(C#N)cc1)O2` (single isomer, unassigned) [139F], the IC50 is < 100 nM.

On to `CS(=O)(=O)[C@H]1[C@@H](O)[C@@]2(O)c3ncc(Cl)cc3O[C@@]2(c2ccc(C#N)cc2)[C@@H]1c1ccccc1` (racemic) [85F, Rac-4-((5aR,6S,7R,8S,8aS)-3-chloro-8,8a-dihydroxy-7-(methylsulfonyl)-6-phenyl-6,7,8,8a-tetrahydro-5aH-cyclopenta[4,5]furo[3,2-b]pyridin-5a-yl)benzonitrile], for which the IC50 is > 1000 nM.

Consider `COc1cncc2c1[C@]1(O)[C@@H]3OC(=O)C[C@@H]3[C@@H](c3ccccc3)[C@]1(c1ccc(Br)cc1)O2` (racemic) [275F, Rac-(3aR,4S,4aR,9bS,9cR)-4a-(4-bromophenyl)-9b-hydroxy-9-methoxy-4-phenyl-3,3a,4,4a,9b,9c-hexahydro-2H-furo[3″,2″:4′,5′]cyclopenta[1′,2′:4,5]furo[2,3-c]pyridin-2-one], for which the IC50 is < 100 nM.

The record behind these values is patent publication US10577378B2, “EIF4A-inhibiting compounds and methods related thereto” (eFFECTOR Therapeutics, Inc., priority 2015, dated 2020).
